Measured values from patent publication US6713265B1 (Synaptic Pharmaceutical Corporation, priority 1999, dated 2004).

What was measured:
5HT7 = 5HT7 (Homo sapiens, UniProt P34969); test: Binding at cloned human 5HT7 receptor
human Y2 receptor = target: T1, human Y2 receptor (Homo sapiens, UniProt P49146); test: ^125I-PYY binding to membranes, cloned human Y2 receptor; details: read-out: Binding Affinity Ki vs. ^125I-PYY, Human Receptor Y2; Table 14; stably transfected 293 cells (compound 1 also COS-7)
T1 construct: expressed in transfected cells; host or cells: COS-7 (transient)
T1 sequence (P49146 1-381): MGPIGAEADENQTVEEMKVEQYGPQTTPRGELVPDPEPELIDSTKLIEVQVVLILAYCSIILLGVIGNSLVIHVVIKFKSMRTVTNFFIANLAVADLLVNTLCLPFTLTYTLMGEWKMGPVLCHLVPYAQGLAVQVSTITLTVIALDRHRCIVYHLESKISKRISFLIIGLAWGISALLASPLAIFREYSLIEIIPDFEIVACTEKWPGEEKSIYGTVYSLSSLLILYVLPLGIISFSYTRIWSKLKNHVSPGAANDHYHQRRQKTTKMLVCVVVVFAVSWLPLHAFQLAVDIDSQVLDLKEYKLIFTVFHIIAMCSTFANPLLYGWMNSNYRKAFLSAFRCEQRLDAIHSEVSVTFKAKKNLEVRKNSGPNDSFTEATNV

food intake = test: Food intake in food-deprived rats; format: in vivo, rat; details: 30 mg/kg i.p., after 24h food deprivation
Method: After receipt, the animals are individually housed for the duration of the study and allowed free access to normal food together with tap water. The animals are maintained in a room with a 12 h light/dark cycle (8:00 a.m. to 8:00 p.m. light) at 24° C. and monitored humidity. After placement into individual cages the rats undergo a 4 day equilibration period, during which they are habituated to their new environment and to eating a powdered or pellet diet NAFAG, Gossau, Switzerland).
At the end of the equilibration period, food is removed from the animals for 24 hours starting at 8:00 a.m. At the end of the fasting period compound or vehicle may be administered to the animals orally or by injection intraperitoneally or intravenously. After 10-60 min. food is returned to the animals and their food intake is monitored at various time periods during the following 24 hour period. The food intake of animals treated with test compound may be calculated as a percentage of the food intake of control animals (i.e., animals treated with vehicle). Alternatively, food intake for each group of animals subjected to a particular experimental condition may be expressed as the mean±S.E.M.
Measurements were performed two hours after administration of the test compound.

5HT1Dα = 5HT1Dα (Homo sapiens, UniProt P28221); test: Binding at cloned human 5HT1Dα receptor
Method: The cell line for the 5HT1Dα receptor, designated as Ltk-8-30-84, was deposited on Apr. […] The cell for the 5HT1Dβ receptor, designated as Ltk-11, was deposited on Apr. […] Membrane preparations comprising these receptors were prepared as described below, and suspended in 50 mM Tris-HCl buffer (pH 7.4 at 37° C.) containing 10 mM MgCl2, 0.2 mM EDTA, 10 μM pargyline, and 0.1% ascorbate. The binding of compounds was determined in competition binding assays by incubation for 30 minutes at 37° C. in the presence of 5 nM [^3H]serotonin. Nonspecific binding was determined in the presence of 10 μM serotonin.

human Y5 receptor = target: T2, human Y5 receptor (Homo sapiens, UniProt Q15761); test: Radioimmunoassay of cAMP, cells stably expressing human Y5 receptor; format: cell-based; set-up: Ki Values, Human Y5; apparent Kd; pKd; The isolated clone (CG-19) turned out to contain a full length cDNA; The longest open reading frame encodes a 455 amino acid protein; details: block of NPY-induced inhibition of cAMP accumulation, forskolin-stimulated LM(tk-) cells, human Y5
T2 sequence (Q15761 1-445): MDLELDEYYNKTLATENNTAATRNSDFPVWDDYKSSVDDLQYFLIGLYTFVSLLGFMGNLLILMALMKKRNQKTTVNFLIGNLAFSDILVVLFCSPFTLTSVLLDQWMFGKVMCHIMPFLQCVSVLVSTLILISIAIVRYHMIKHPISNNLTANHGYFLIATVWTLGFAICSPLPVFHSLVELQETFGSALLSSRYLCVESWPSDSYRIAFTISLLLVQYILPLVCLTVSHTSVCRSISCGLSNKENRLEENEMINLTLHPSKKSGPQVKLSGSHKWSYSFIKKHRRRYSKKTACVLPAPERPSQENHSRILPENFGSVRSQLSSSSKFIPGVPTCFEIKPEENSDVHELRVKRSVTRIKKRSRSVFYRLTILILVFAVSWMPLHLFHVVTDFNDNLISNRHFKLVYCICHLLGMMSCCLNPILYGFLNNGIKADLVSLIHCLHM
Method: LM(tk-) cells stably transfected with the human Y5 receptor were routinely converted from an adherent monolayer to a viable suspension. […] The cell suspension was maintained in a shaking incubator at 37° C., 5% CO2 for 24 hours. […] Alternatively, cells may be returned to adherent cell culture in complete DMEM by distribution into 96-well microtiter plates coated with poly-D-lysine (0.01 mg/ml) followed by incubation at 37° C., 5% CO2 for 24 hours.
The maximum inhibition of cAMP accumulation (Emax) and the concentration producing a half-maximal effect (EC50) were determined by nonlinear regression analysis according to a 4 parameter logistic equation.
The ability of the compounds to antagonize the Y-type receptors is reported as the Kb. […] The results shown are representative of at least three independent experiments.

human Y4 receptor = target: T3, human Y4 receptor (Homo sapiens, UniProt P50391); test: ^125I-PYY binding to membranes, cloned human Y4 receptor; details: read-out: Binding Affinity Ki vs. ^125I-PYY, Human Receptor Y4; Table 14; stably transfected LM(tk-) cells
T3 construct: expressed in transfected cells; host or cells: COS-7 (transient)

α1b = target: T4, α1b (Homo sapiens, UniProt P35368); test: Binding at cloned human α1b adrenergic receptor
T4 sequence (P35368 1-520): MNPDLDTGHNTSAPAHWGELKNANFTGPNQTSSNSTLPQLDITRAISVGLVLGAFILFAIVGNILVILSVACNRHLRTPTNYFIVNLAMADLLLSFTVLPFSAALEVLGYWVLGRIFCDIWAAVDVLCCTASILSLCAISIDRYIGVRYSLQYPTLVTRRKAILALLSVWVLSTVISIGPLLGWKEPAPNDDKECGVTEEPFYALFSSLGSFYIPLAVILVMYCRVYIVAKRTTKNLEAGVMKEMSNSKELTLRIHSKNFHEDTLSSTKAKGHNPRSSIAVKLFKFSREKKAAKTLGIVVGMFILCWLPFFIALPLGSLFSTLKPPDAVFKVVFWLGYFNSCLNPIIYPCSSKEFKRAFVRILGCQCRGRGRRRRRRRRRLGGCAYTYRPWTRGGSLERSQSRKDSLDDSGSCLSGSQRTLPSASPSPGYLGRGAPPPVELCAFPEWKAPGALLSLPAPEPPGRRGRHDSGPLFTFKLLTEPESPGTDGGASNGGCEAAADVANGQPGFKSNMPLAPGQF

α1a = target: T5, α1a (Homo sapiens, UniProt P35348); test: Binding at cloned human α1a adrenergic receptor
T5 sequence (P35348 1-466): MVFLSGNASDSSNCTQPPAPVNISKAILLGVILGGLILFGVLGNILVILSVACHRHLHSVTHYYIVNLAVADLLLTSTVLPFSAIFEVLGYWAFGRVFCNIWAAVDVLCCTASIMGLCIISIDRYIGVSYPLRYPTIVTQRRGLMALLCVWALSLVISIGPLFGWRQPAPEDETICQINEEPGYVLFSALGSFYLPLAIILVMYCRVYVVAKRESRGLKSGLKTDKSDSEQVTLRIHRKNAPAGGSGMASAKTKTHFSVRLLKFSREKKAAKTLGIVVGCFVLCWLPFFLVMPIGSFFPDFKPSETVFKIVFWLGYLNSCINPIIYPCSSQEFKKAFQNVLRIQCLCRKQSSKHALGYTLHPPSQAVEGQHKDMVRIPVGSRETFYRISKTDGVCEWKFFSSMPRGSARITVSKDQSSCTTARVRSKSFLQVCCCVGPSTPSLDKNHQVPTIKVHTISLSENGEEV

T3 sequence (P50391 whole entry): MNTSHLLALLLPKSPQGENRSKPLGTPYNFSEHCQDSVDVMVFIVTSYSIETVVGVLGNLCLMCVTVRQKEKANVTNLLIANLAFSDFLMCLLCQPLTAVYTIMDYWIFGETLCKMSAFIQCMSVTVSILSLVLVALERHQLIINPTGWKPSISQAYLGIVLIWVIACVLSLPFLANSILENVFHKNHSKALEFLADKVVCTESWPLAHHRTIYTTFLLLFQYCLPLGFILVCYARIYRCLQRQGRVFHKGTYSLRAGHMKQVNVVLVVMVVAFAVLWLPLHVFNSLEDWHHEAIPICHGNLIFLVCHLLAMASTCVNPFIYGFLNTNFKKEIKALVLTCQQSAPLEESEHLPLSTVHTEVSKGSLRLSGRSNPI
Sequence of 5HT7 (P34969 1-445 isoform P34969-2): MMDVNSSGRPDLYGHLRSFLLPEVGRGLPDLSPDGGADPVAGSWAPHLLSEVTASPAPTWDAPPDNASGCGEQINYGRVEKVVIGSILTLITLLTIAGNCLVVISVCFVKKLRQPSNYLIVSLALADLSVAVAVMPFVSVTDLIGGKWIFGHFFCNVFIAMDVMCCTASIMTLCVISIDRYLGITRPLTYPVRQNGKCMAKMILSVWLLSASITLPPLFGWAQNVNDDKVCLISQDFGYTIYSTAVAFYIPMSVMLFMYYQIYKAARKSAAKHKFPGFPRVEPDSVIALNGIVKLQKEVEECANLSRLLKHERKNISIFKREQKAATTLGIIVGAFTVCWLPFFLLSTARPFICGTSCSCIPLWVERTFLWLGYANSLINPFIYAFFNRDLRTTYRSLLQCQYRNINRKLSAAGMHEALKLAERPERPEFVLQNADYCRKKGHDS
Sequence of 5HT1Dα (P28221 whole entry): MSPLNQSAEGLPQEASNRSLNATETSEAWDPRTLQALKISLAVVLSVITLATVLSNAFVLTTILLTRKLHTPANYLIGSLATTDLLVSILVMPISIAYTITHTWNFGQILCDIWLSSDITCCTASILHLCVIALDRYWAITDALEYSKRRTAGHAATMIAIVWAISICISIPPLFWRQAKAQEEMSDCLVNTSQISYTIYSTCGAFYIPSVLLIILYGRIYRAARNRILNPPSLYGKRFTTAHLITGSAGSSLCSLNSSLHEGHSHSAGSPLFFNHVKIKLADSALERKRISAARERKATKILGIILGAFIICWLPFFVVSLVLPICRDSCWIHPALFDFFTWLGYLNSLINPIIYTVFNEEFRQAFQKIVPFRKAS

Compound | pKi 5HT7 (5HT7) | Ki (human Y2 receptor) | Two-hour food intake of food-deprived rats, percentage of intake compared to control rats, Mean (food intake) | pKi 5HT1Dα (5HT1Dα) | Kb (human Y5 receptor) | Ki (human Y4 receptor) | pKi α1b (α1b) | pKi α1a (α1a)
Cl.O=S(=O)(NC[C@H]1CC[C@H](CNCC2CCc3ccccc3C2)CC1)c1cccc2ccccc12 (mixture of isomers) [Compound 19] | 6.42 | 0.955 µM | 36% | 6.04 | 0.023 µM | 11.7 µM | 7.35 | 7.47
Cl.O=[N+]([O-])c1ccccc1S(=O)(=O)NC[C@H]1CC[C@H](CNCC2CCc3ccccc3C2)CC1 (mixture of isomers) [Compound 20] | 6.37 | 7.76 µM | 35% | 5.94 | 0.026 µM | 20.4 µM | 7.22 | 7.72
Cl.Cl.Nc1ccccc1S(=O)(=O)NC[C@H]1CC[C@H](CNCC2CCc3ccccc3C2)CC1 (mixture of isomers) [Compound 22] | 6.39 | 7.57 µM | 55% | 5.98 | 0.003 µM | 27.5 µM | 6.98 | 7.34
